Key:
OCT1 = molecular target: T1, OCT1 (Homo sapiens, UniProt O15245); experiment: Stereoselective uptake into OCT1-overexpressing HEK293 cells; conditions: OCT1; for Saturable net uptake: result in words; for Clint ± SEM: quotient of vmax over Km; for selectivity ratio at 2 min: human, ratio between enantiomers;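 for all read-outs here: enantiomers quantified inside cells by chiral HPLC-MS/MS, uptake normalized to total protein from bicinchoninic acid assay, substrates applied in HBSS+ buffer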
T1 sequence (O15245 1-554): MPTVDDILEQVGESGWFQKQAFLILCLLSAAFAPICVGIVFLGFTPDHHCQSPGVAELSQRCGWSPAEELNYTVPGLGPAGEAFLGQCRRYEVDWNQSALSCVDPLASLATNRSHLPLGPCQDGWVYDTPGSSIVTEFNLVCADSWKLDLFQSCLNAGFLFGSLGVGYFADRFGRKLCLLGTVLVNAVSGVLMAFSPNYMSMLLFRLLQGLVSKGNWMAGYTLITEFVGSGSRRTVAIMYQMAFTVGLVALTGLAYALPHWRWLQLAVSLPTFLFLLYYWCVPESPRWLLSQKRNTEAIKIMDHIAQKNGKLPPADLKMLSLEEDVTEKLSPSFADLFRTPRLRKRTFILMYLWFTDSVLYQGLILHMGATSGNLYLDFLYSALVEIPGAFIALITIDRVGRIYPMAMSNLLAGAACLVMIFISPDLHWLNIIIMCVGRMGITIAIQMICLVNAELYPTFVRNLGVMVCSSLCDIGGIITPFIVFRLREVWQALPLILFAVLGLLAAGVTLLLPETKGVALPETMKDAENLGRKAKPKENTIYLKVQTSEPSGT

NET = NET (Homo sapiens, UniProt P23975); experiment: Stereoselective uptake into NET-overexpressing HEK293 cells; conditions: for Saturable net uptake: result in words; for Saturable net uptake / Clint ± SEM / Stereoselectivity Vmax / Stereoselectivity Km: NET; for Clint ± SEM: quotient of vmax over Km; for Stereoselectivity Vmax / Stereoselectivity Km: ratio between enantiomers; for Stereoselectivity Vmax: given as for (R) or for 1; for Stereoselectivity Km: given as for (S) or for 2 (second-eluting); for selectivity ratio at 2 min: human;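 for all read-outs here: intracellular enantiomers quantified in cell lysates by chiral HPLC-MS/MS after a 2 min substrate incubation, with uptake normalized to total cellular protein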
NET, sequence (P23975 whole entry): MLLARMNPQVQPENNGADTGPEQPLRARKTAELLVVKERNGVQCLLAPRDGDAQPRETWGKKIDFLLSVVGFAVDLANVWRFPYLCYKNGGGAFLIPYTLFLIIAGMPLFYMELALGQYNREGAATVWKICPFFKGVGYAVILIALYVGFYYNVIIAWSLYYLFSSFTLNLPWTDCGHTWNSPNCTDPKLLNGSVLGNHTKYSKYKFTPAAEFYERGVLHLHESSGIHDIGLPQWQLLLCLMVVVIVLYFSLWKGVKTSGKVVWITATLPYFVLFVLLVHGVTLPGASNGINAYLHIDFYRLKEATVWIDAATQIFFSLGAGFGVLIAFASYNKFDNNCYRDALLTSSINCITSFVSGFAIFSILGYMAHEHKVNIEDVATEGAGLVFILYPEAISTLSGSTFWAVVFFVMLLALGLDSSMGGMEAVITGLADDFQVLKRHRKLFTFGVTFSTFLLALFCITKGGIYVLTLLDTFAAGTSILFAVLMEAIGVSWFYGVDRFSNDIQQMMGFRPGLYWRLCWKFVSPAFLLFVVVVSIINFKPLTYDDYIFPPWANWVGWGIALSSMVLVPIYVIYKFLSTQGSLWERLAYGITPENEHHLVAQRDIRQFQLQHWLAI

OCT2 = molecular target: T2, OCT2 (Homo sapiens, UniProt O15244); experiment: Stereoselective uptake into OCT2 (wild-type)-overexpressing HEK293 cells; conditions: OCT2; for Clint ± SEM: quotient of vmax over Km; for selectivity ratio at 2 min: human, ratio between enantiomers
T2 sequence (O15244 1-555 S270A): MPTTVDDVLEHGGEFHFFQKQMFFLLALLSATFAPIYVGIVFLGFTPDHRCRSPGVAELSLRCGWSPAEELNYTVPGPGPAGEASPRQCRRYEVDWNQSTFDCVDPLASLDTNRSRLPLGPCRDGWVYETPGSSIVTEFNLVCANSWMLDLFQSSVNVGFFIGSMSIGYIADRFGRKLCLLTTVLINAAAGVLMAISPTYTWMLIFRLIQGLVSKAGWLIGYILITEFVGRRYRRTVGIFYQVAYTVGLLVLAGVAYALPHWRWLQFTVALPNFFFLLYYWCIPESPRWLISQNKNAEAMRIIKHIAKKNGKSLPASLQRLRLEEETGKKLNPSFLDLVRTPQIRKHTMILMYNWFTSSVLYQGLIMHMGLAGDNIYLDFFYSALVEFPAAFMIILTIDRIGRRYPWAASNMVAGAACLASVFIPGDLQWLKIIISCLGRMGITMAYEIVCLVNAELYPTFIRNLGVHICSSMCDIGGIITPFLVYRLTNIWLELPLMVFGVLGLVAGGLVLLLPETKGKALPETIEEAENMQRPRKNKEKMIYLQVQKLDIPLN

SERT [1] = molecular target: T3, SERT (Homo sapiens, UniProt P31645); experiment: Stereoselective uptake into SERT-overexpressing HEK293 cells; conditions: SERT; for Saturable net uptake: result in words; for Clint ± SEM: quotient of vmax over Km; for Stereoselectivity Vmax / Stereoselectivity Km: ratio between enantiomers; for Stereoselectivity Vmax: given as for (S) or for 2; for Stereoselectivity Km: given as for (S) or for 2 (second-eluting);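 for all read-outs here: uptake into HEK293 cells stably expressing human SERT over 2 min, enantiomers measured in cell lysate by chiral HPLC-MS/MS, normalized to total protein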
T3 sequence (P31645 whole entry): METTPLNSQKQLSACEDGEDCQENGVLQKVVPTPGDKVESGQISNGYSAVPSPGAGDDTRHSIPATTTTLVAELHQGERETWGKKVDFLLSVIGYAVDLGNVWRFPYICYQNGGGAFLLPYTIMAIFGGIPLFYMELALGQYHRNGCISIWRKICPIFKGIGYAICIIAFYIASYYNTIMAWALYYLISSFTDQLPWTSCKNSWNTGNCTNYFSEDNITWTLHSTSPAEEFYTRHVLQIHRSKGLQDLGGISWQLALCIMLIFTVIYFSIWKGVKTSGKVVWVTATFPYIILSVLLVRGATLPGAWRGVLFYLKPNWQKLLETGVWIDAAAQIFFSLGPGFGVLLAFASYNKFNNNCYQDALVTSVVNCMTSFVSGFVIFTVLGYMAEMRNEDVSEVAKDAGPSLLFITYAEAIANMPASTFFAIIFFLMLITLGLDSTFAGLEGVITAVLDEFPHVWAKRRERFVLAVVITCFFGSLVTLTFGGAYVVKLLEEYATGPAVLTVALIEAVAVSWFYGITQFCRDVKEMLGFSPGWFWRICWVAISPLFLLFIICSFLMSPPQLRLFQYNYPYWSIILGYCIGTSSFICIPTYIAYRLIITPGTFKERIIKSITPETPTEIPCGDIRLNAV

DAT = DAT (Homo sapiens, UniProt Q01959); experiment: Stereoselective uptake into DAT-overexpressing HEK293 cells; conditions: for Saturable net uptake / Clint ± SEM / Stereoselectivity Vmax / Stereoselectivity Km: DAT; for Saturable net uptake: result in words; for Clint ± SEM: quotient of vmax over Km; for Stereoselectivity Vmax / Stereoselectivity Km: ratio between enantiomers; for Stereoselectivity Vmax: given as for (R) or for 1; for Stereoselectivity Km: given as for (S) or for 2 (second-eluting); for selectivity ratio at 2 min: human;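 for all read-outs here: intracellular accumulation measured by chiral HPLC-MS/MS in stably transfected HEK293 cells, normalized to total protein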
DAT, sequence (Q01959 whole entry): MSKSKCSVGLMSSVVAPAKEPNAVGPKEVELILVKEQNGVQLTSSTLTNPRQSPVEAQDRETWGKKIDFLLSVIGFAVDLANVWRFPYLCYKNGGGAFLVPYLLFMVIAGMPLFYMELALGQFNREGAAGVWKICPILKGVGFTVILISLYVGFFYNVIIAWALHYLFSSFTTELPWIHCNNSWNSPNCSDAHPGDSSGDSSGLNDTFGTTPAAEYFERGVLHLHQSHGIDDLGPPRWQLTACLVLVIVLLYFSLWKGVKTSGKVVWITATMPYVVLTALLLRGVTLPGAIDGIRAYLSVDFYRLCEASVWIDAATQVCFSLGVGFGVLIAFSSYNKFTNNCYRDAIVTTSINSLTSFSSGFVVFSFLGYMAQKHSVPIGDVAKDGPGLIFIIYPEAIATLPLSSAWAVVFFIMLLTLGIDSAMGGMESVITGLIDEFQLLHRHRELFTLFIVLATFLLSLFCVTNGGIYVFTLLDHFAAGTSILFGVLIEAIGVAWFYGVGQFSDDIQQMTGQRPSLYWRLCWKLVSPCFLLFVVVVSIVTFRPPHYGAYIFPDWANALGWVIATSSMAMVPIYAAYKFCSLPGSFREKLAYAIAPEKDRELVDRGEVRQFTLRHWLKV

OCT3 = molecular target: T4, OCT3 (Homo sapiens, UniProt O75751); experiment: Stereoselective uptake into OCT3-overexpressing HEK293 cells; conditions: for Saturable net uptake / Clint ± SEM / Stereoselectivity Vmax / Stereoselectivity Km: OCT3; for Saturable net uptake: result in words; for Clint ± SEM: quotient of vmax over Km; for Stereoselectivity Vmax / Stereoselectivity Km: ratio between enantiomers; for Stereoselectivity Vmax: given as for (R) or for 1; for Stereoselectivity Km: given as for (R) or for 1 (first-eluting); for selectivity ratio at 2 min: human;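 for all read-outs here: intracellular accumulation in HEK293 cells measured by chiral HPLC-MS/MS after a 2 min substrate exposure at 37 °C, uptake normalized to total protein (bicinchoninic acid assay)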
T4 sequence (O75751 1-556): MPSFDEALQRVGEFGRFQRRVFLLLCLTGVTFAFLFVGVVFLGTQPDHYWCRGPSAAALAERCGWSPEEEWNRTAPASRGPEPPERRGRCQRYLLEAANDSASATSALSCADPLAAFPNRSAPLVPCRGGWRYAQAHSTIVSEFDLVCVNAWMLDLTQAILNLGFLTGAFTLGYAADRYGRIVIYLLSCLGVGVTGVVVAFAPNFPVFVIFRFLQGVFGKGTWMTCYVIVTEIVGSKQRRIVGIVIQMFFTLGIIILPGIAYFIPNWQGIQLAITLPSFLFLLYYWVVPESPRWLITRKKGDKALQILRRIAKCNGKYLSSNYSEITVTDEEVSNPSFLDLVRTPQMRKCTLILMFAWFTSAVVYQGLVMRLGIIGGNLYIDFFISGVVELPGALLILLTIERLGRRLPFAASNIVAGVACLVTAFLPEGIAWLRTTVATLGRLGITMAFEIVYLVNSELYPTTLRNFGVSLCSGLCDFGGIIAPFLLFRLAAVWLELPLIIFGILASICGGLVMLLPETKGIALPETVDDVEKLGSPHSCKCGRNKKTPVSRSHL

[2] = test system: OCT2 wild-type versus A270S variant; experiment: in vitro; conditions: human, Transporter selectivity, OCT2 wild-type versus A270S, 100 μM racemic substance, two minutes
SERT [3] = molecular target: T3, SERT; experiment: in vitro
OCT2 (wild-type) = molecular target: T5, OCT2 (wild-type) (Homo sapiens, UniProt O15244); experiment: Stereoselective uptake into OCT2 (wild-type)-overexpressing HEK293 cells; conditions: human, Stereoselectivity OCT2_WT, 100 μM racemic substance, two minutes; uptake ratio of enantiomers, given as for (R)
T5 sequence (O15244 1-555 S270A): T2 sequence (O15244 1-555 S270A)

OCT2 A270S variant = experiment: in vitro; conditions: human, Stereoselectivity OCT2_A270S, 100 μM racemic substance, two minutes, uptake ratio of enantiomers
[4] = Stereoselectivity Km, given as for (S) or for 2 (second-eluting)
[5] = Stereoselectivity Vmax, given as for (R) or for 1
[6] = Stereoselectivity ClInt, given as for (R) or for 1 (also 1.00-fold for 1/2)
[7] = Stereoselectivity ClInt, given as for (S) or for 2
[8] = Stereoselectivity Km, given as for (R) or for 1 (first-eluting)

For `CNCC(O)c1ccccc1` (stereo not drawn) [Halostachine-1, Halostachine], the Saturable net uptake (OCT1) was “No saturable net uptake”, the Saturable net uptake (NET) was “No saturable net uptake” and the “Clint ± SEM” value (OCT2) was 25.7 mL × g Protein^−1 × min^−1. For the same molecule, the selectivity ratio at 2 min (OCT2; Stereoselectivity ClInt, given as for (R) or for 1) was 1.89, the selectivity ratio at 2 min (OCT2; [4]) was 1.5 and the selectivity ratio at 2 min (OCT2; [5]) was 1.26. For the same molecule, the Saturable net uptake (SERT [1]) was “No saturable net uptake”, the Saturable net uptake (DAT) was “No saturable net uptake” and the Saturable net uptake (OCT3) was “No saturable net uptake”. The selectivity ratio at 2 min, 100 μM ([2]; given as for WT) was 1.02.

In the case of `CNC[C@H](O)c1ccc(O)cc1` [(R)-Synephrine], the “Clint ± SEM” value (OCT1) was 21.0 mL × g Protein^−1 × min^−1, the selectivity ratio at 2 min (OCT1; [6]) was 1.73 and the selectivity ratio at 2 min (OCT1; [4]) was 1.28. For the same molecule, the selectivity ratio at 2 min (OCT1; [5]) was 1.35, the “Clint ± SEM” value (NET) was 37.3 mL × g Protein^−1 × min^−1 and the “Stereoselectivity Vmax” value (NET) was 1.80 fold. The “Stereoselectivity Km” value (NET) was 2.61 fold, the selectivity ratio at 2 min (NET) was 4.7 and the “Clint ± SEM” value (OCT2) was 24.6 mL × g Protein^−1 × min^−1. The selectivity ratio at 2 min (OCT2; [7]) was 1.01, the selectivity ratio at 2 min (OCT2; [8]) was 2.07 and the selectivity ratio at 2 min (OCT2; [5]) was 2.05. For the same molecule, the “Clint ± SEM” value (SERT [1]) was 0.69 mL × g Protein^−1 × min^−1, the “Stereoselectivity Vmax” value (SERT [1]) was 1.35 fold and the “Stereoselectivity Km” value (SERT [1]) was 1.52 fold. For the same molecule, the “Clint ± SEM” value (DAT) was 23.1 mL × g Protein^−1 × min^−1, the “Stereoselectivity Vmax” value (DAT) was 1.84 fold and the “Stereoselectivity Km” value (DAT) was 1.21 fold. The selectivity ratio at 2 min (DAT) was 2.23, the selectivity ratio (SERT [3]) was 1.13 and the “Clint ± SEM” value (OCT3) was 26.3 mL × g Protein^−1 × min^−1. For the same molecule, the “Stereoselectivity Vmax” value (OCT3) was 1.05 fold, the “Stereoselectivity Km” value (OCT3) was 1.11 fold and the selectivity ratio at 2 min (OCT3) was 1.06. The selectivity ratio at 2 min, 100 μM ([2]; given as for WT) was 1.41.

`CNC[C@@H](O)c1ccc(O)cc1` [(S)-Synephrine] was tested, and the “Clint ± SEM” value (OCT1) was 12.1 mL × g Protein^−1 × min^−1, the selectivity ratio at 2 min (OCT1; [6]) was 1.73 and the selectivity ratio at 2 min (OCT1; [4]) was 1.28. For the same molecule, the selectivity ratio at 2 min (OCT1; [5]) was 1.35, the “Clint ± SEM” value (NET) was 7.92 mL × g Protein^−1 × min^−1 and the “Stereoselectivity Vmax” value (NET) was 1.80 fold. For the same molecule, the “Stereoselectivity Km” value (NET) was 2.61 fold, the selectivity ratio at 2 min (NET) was 4.7 and the “Clint ± SEM” value (OCT2) was 24.8 mL × g Protein^−1 × min^−1. It also gave a selectivity ratio at 2 min (OCT2; [7]) of 1.01, a selectivity ratio at 2 min (OCT2; [8]) of 2.07 and a selectivity ratio at 2 min (OCT2; [5]) of 2.05. For the same molecule, the “Clint ± SEM” value (SERT [1]) was 0.61 mL × g Protein^−1 × min^−1, the “Stereoselectivity Vmax” value (SERT [1]) was 1.35 fold and the “Stereoselectivity Km” value (SERT [1]) was 1.52 fold. For the same molecule, the “Clint ± SEM” value (DAT) was 10.4 mL × g Protein^−1 × min^−1, the “Stereoselectivity Vmax” value (DAT) was 1.84 fold and the “Stereoselectivity Km” value (DAT) was 1.21 fold. The selectivity ratio at 2 min (DAT) was 2.23, the selectivity ratio (SERT [3]) was 1.13 and the “Clint ± SEM” value (OCT3) was 27.8 mL × g Protein^−1 × min^−1. The “Stereoselectivity Vmax” value (OCT3) was 1.05 fold, the “Stereoselectivity Km” value (OCT3) was 1.11 fold and the selectivity ratio at 2 min (OCT3) was 1.06. The selectivity ratio at 2 min, 100 μM ([2]; given as for WT) was 1.2.

In the case of `CNCC(O)c1ccccc1` (stereo not drawn) [Halostachine-2, Halostachine], the Saturable net uptake (OCT1) was “No saturable net uptake”, the Saturable net uptake (NET) was “No saturable net uptake” and the “Clint ± SEM” value (OCT2) was 13.6 mL × g Protein^−1 × min^−1. For the same molecule, the Saturable net uptake (SERT [1]) was “No saturable net uptake”, the Saturable net uptake (DAT) was “No saturable net uptake” and the Saturable net uptake (OCT3) was “No saturable net uptake”. The selectivity ratio at 2 min, 100 μM ([2]; given as for A270S) was 1.05.

`NCC(O)c1ccccc1` (stereo not drawn) [Bisnorephedrine] was tested, and the selectivity ratio at 2 min, 100 μM (OCT2 (wild-type)) was 1.1 and the selectivity ratio at 2 min, 100 μM (OCT2 A270S variant; given as for (S)) was 1.09.

Work on `COc1cc(C(O)CN)ccc1O` (stereo not drawn) [Normetanephrine] yielded a selectivity ratio at 2 min, 100 μM (OCT2 (wild-type)) of 1.91 and a selectivity ratio at 2 min, 100 μM (OCT2 A270S variant; given as for (R)) of 1.7.

`CNCC(O)c1ccccc1` (stereo not drawn) [Halostachine] showed a selectivity ratio at 2 min, 100 μM (OCT2 (wild-type)) of 1.42 and a selectivity ratio at 2 min, 100 μM (OCT2 A270S variant; given as for (R)) of 1.32.

For `CNCC(O)c1ccc(O)c(OC)c1` (stereo not drawn) [Metanephrine], the selectivity ratio at 2 min, 100 μM (OCT2 (wild-type)) was 2.78 and the selectivity ratio at 2 min, 100 μM (OCT2 A270S variant; given as for (R)) was 2.26.
